Results from patent publication US10750743B2, “Pyridazinone herbicides” (E.I. DU PONT DE NEMOURS AND COMPANY, priority 2015, dated 2020).

Tests used:
Type in all cases: in vivo
[1] = test system: pigweed (Amaranthus retroflexus); assay: Test A preemergence, directed soil spray, visual injury rating; settings: Amaranthus retroflexus, pre-emergence, 240 h, 0 is no effect, 100 is complete control, read-out: Plant response rating (0 to 100 scale), Pigweed
Method in brief: (§1)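 Injury ratings, 0 (no effect) to 100 (complete control), were scored visually versus untreated plants roughly 10 d after treatment under greenhouse conditions. Treatments used surfactant-containing solvent formulations, sprayed onto soil preemergence or onto one- to two-leaf seedlings (2-10 cm) postemergence, grown in a loam-sand mix.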

[2] = test system: ryegrass, It. (Italian ryegrass, Lolium multiflorum); assay: as above; settings: Lolium multiflorum, pre-emergence, 240 h, 0 is no effect, 100 is complete control, read-out: Plant response rating (0 to 100 scale), Ryegrass, It.
Method in brief: as §1

[3] = test system: ragweed (common ragweed, Ambrosia elatior); assay: as above; settings: Ambrosia artemisiifolia, pre-emergence, 240 h, 0 is no effect, 100 is complete control, read-out: Plant response rating (0 to 100 scale), Ragweed
Method in brief: as §1

[4] = test system: foxtail, giant (giant foxtail, Setaria faberii); assay: as above; settings: Setaria faberi, pre-emergence, 240 h, 0 is no effect, 100 is complete control, read-out: Plant response rating (0 to 100 scale), Foxtail, Giant
Method in brief: as §1

[5] = test system: kochia (Kochia scoparia); assay: as above; settings: Bassia scoparia, pre-emergence, 240 h, 0 is no effect, 100 is complete control, read-out: Plant response rating (0 to 100 scale), Kochia
Method in brief: as §1

[6] = test system: barnyardgrass (Echinochloa crus-galli); assay: as above; settings: Echinochloa crus-galli, pre-emergence, 240 h, 0 is no effect, 100 is complete control, read-out: Plant response rating (0 to 100 scale), Barnyardgrass
Method in brief: as §1

[7] = test system: ducksalad (Heteranthera limosa); assay: Test B flooded paddy test, visual rating; settings: Heteranthera limosa, 360 h; Flood, 250 g ai/ha, applied to paddy water, rated after 13 to 15 d; read-out: Ducksalad plant response rating (0 to 100 scale, 0 is no effect, 100 is complete control)
Method in brief: (§2)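 Ratings use a 0-100 visual scale, where 100 is complete control, and compare treated plants with controls after 13 to 15 d of greenhouse growth. Compound went straight into paddy water kept 3 cm over the soil surface, applied to seedlings at the 2-leaf stage.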

[8] = test system: sedge, umbrella (small-flower umbrella sedge, Cyperus difformis); assay: Test B flooded paddy test, visual rating; settings: Cyperus difformis, 360 h; Flood, 250 g ai/ha, applied to paddy water, rated after 13 to 15 d; read-out: Sedge, Umbrella plant response rating (0 to 100 scale, 0 is no effect, 100 is complete control)
Method in brief: as §2

[9] = test system: barnyardgrass (Echinochloa crus-galli); assay: Test B flooded paddy test, visual rating; settings: Echinochloa crus-galli, 360 h; Flood, 250 g ai/ha, applied to paddy water, rated after 13 to 15 d; read-out: Barnyardgrass plant response rating (0 to 100 scale, 0 is no effect, 100 is complete control)
Method in brief: as §2

[10] = test system: pigweed (Amaranthus retroflexus); assay: Test A postemergence application, visual injury rating; settings: Amaranthus retroflexus, post-emergence, 240 h, 0 to 100 scale, 0 no effect, 100 complete control, read-out: Pigweed plant response rating
Method in brief: as §1

[11] = test system: ryegrass, It. (Italian ryegrass, Lolium multiflorum); assay: as above; settings: Lolium multiflorum, post-emergence, 240 h, 0 to 100 scale, 0 no effect, 100 complete control, read-out: Ryegrass, It. plant response rating
Method in brief: as §1

[12] = test system: ragweed (common ragweed, Ambrosia elatior); assay: as above; settings: Ambrosia artemisiifolia, post-emergence, 240 h, 0 to 100 scale, 0 no effect, 100 complete control, read-out: Ragweed plant response rating
Method in brief: as §1

[13] = test system: blackgrass (Alopecurus myosuroides); assay: as above; settings: Alopecurus myosuroides, post-emergence, 240 h, 0 to 100 scale, 0 no effect, 100 complete control, read-out: Blackgrass plant response rating
Method in brief: as §1

[14] = test system: foxtail, giant (giant foxtail, Setaria faberii); assay: as above; settings: Setaria faberi, post-emergence, 240 h, 0 to 100 scale, 0 no effect, 100 complete control, read-out: Foxtail, Giant plant response rating
Method in brief: as §1

[15] = test system: wheat (Triticum aestivum); assay: as above; settings: Triticum aestivum, post-emergence, 240 h, 0 to 100 scale, 0 no effect, 100 complete control, read-out: Wheat plant response rating
Method in brief: as §1

[16] = test system: kochia (Kochia scoparia); assay: as above; settings: Bassia scoparia, post-emergence, 240 h, 0 to 100 scale, 0 no effect, 100 complete control, read-out: Kochia plant response rating
Method in brief: as §1

[17] = test system: galium (catchweed bedstraw, Galium aparine); assay: as above; settings: Galium, post-emergence, 240 h, 0 to 100 scale, 0 no effect, 100 complete control, read-out: Galium plant response rating
Method in brief: as §1

[18] = test system: barnyardgrass (Echinochloa crus-galli); assay: as above; settings: Echinochloa crus-galli, post-emergence, 240 h, 0 to 100 scale, 0 no effect, 100 complete control, read-out: Barnyardgrass plant response rating
Method in brief: as §1

[19] = test system: corn (Zea mays); assay: as above; settings: Zea mays, post-emergence, 240 h, 0 to 100 scale, 0 no effect, 100 complete control, read-out: Corn plant response rating
Method in brief: as §1

Work on CCOC(=O)Oc1c(C)nn(C)c(=O)c1-c1c(C)ccc2sccc12 [Compound 30, 1,6-dihydro-1,3-dimethyl-5-(5-methylbenzo[b]thien-4-yl)-6-oxo-4-pyridazinyl ethyl carbonate] yielded a pest or weed control at 125 g/ha ([1]; 125 g ai/ha) of 90%, a pest or weed control at 500 g/ha ([1]; 500 g ai/ha) of 100% and a pest or weed control at 125 g/ha ([2]; 125 g ai/ha) of 90%. It also gave a pest or weed control at 500 g/ha ([2]; 500 g ai/ha) of 100%, a pest or weed control at 125 g/ha ([3]; 125 g ai/ha) of 20% and a pest or weed control at 500 g/ha ([3]; 500 g ai/ha) of 90%. The pest or weed control at 125 g/ha ([4]; 125 g ai/ha) was 0%, the pest or weed control at 500 g/ha ([4]; 500 g ai/ha) was 80% and the pest or weed control at 125 g/ha ([5]; 125 g ai/ha) was 10%. For the same molecule, the pest or weed control at 500 g/ha ([5]; 500 g ai/ha) was 80%, the pest or weed control at 125 g/ha ([6]; 125 g ai/ha) was 0% and the pest or weed control at 500 g/ha ([6]; 500 g ai/ha) was 90%. For the same molecule, the pest or weed control at 250 g/ha [7] was 0%, the pest or weed control at 250 g/ha [8] was 0% and the pest or weed control at 250 g/ha [9] was 0%. It also gave a pest or weed control at 125 g/ha ([10]; 125 g ai/ha) of 90%, a pest or weed control at 500 g/ha ([10]; 500 g ai/ha) of 90% and a pest or weed control at 125 g/ha ([11]; 125 g ai/ha) of 100%. The pest or weed control at 500 g/ha ([11]; 500 g ai/ha) was 100%, the pest or weed control at 125 g/ha ([12]; 125 g ai/ha) was 60% and the pest or weed control at 500 g/ha ([12]; 500 g ai/ha) was 90%. It also gave a pest or weed control at 125 g/ha ([13]; 125 g ai/ha) of 40%, a pest or weed control at 500 g/ha ([13]; 500 g ai/ha) of 90% and a pest or weed control at 125 g/ha ([14]; 125 g ai/ha) of 10%. For the same molecule, the pest or weed control at 500 g/ha ([14]; 500 g ai/ha) was 70%, the plant injury at 125 g/ha ([15]; 125 g ai/ha) was 0% and the plant injury at 500 g/ha ([15]; 500 g ai/ha) was 30%. For the same molecule, the pest or weed control at 125 g/ha ([16]; 125 g ai/ha) was 90%, the pest or weed control at 500 g/ha ([16]; 500 g ai/ha) was 100% and the pest or weed control at 125 g/ha ([17]; 125 g ai/ha) was 90%. The pest or weed control at 500 g/ha ([17]; 500 g ai/ha) was 100%, the pest or weed control at 125 g/ha ([18]; 125 g ai/ha) was 10% and the pest or weed control at 500 g/ha ([18]; 500 g ai/ha) was 80%. It also gave a plant injury at 125 g/ha ([19]; 125 g ai/ha) of 20% and a plant injury at 500 g/ha ([19]; 500 g ai/ha) of 40%.
